Literature values, collected in PubChem BioAssay AID1259409 (Chemical Carcinogenesis Research Information System (CCRIS), 2018).

Tested on: rodent chemically induced tumor inhibition, incidence and multiplicity
Assay: CCRIS tumor inhibitor studies
From the text: The CCRIS database contains chemical records with carcinogenicity, mutagenicity, tumor promotion, and tumor inhibition test results. It was developed by the National Cancer Institute (NCI). Data are derived from studies cited in primary journals, current awareness tools, NCI reports, and other sources. Test results have been reviewed by experts in carcinogenesis and mutagenesis.
CCRIS provides historical information from the years 1985 - 2011. It is no longer updated.
This is an archive assay for CCRIS tumor inhibitor studies.

For `CC1(C)CCC2(C(=O)OC3OC(CO)C(O)C(O)C3O)CCC3(CO)C(=CCC4C5(C)CC(O)C(O)C(C)(C(=O)OC6OC(CO)C(O)C(O)C6O)C5CCC43C)C2C1` (configuration not stated), the “tumour outcome (control, treated, inhibition, significance)” value (Carcinogen: BENZO[A]PYRENE, 50-32-8, Dose [Inhibitor]: 0, 12.85 MG/ML IN DRINKING WATER FOR 6 WK (STUDY DURATION: 9 WK), Route [Inhibitor]: ORAL, Species: MOUSE, Strain/Sex: NIGP(S)/FEMALE, Target Tissue: Type of Lesion: LUNG: ADENOMA, Dose [Carcinogen]: 0.5 MG INJECTED IN THE SCAPULAR REGION OF NEWBORN MICE ONCE, Promoter: NONE USED) is given as 56%, 53%, 5%, not calculated and the “tumour outcome (control, treated, inhibition, significance)” value (Carcinogen: BENZO[A]PYRENE, 50-32-8, Dose [Inhibitor]: 0, 12.85 MG/ML IN DRINKING WATER FOR 6 WK (STUDY DURATION: 9 WK), Route [Inhibitor]: ORAL, Species: MOUSE, Strain/Sex: NIGP(S)/MALE, Target Tissue: Type of Lesion: LUNG: ADENOMA, Dose [Carcinogen]: 0.5 MG INJECTED IN THE SCAPULAR REGION OF NEWBORN MICE ONCE, Promoter: NONE USED) is given as 38%, 37%, 3%, not calculated.
For `C=CC/C(=N/OS(=O)(=O)O)S[C@@H]1O[C@H](CO)[C@@H](O)[C@H](O)[C@H]1O`, the “tumour outcome (control, treated, inhibition, significance)” value (Carcinogen: 4-NITROQUINOLINE-1-OXIDE, 56-57-5, Dose [Inhibitor]: 0, 1200 PPM IN DIET BEGINNING 1 WK POST CARCINOGEN TREATMENT AND CONTINUING FOR 23 WK (STUDY DURATION: 37 WK), Route [Inhibitor]: ORAL, Species: RAT, Strain/Sex: ACI/N/MALE, Target Tissue: Type of Lesion: TONGUE: CARCINOMA, Dose [Carcinogen]: 10 PPM IN DRINKING WATER FOR 12 WK, Promoter: NONE USED) is given as 12/17 (71%), 0/15 (0%), 100%, p 0.0003, the “tumour outcome (control, treated, inhibition, significance)” value (Carcinogen: 4-NITROQUINOLINE-1-OXIDE, 56-57-5, Dose [Inhibitor]: 0, 1200 PPM IN DIET BEGINNING 1 WK POST CARCINOGEN TREATMENT AND CONTINUING FOR 23 WK (STUDY DURATION: 37 WK), Route [Inhibitor]: ORAL, Species: RAT, Strain/Sex: ACI/N/MALE, Target Tissue: Type of Lesion: TONGUE: PAPILLOMA, Dose [Carcinogen]: 10 PPM IN DRINKING WATER FOR 12 WK, Promoter: NONE USED) is given as 5/17 (29%), 2/15 (13%), 55%, not calculated and the “tumour outcome (control, treated, inhibition, significance)” value (Carcinogen: 4-NITROQUINOLINE-1-OXIDE, 56-57-5, Dose [Inhibitor]: 0, 1200 PPM IN DIET BEGINNING 1 WK PRIOR TO CARCINOGEN TREATMENT AND CONTINUING FOR 1 WK POST CARCINOGEN TREATMENT (STUD, Route [Inhibitor]: ORAL, Species: RAT, Strain/Sex: ACI/N/MALE, Target Tissue: Type of Lesion: TONGUE: CARCINOMA, Dose [Carcinogen]: 10 PPM IN DRINKING WATER FOR 12 WK, Promoter: NONE USED) is given as 12/17 (71%), 0/15 (0%), 100%, p 0.00003. For the same compound, the “tumour outcome (control, treated, inhibition, significance)” value (Carcinogen: 4-NITROQUINOLINE-1-OXIDE, 56-57-5, Dose [Inhibitor]: 0, 1200 PPM IN DIET BEGINNING 1 WK PRIOR TO CARCINOGEN TREATMENT AND CONTINUING FOR 1 WK POST CARCINOGEN TREATMENT (STUD, Route [Inhibitor]: ORAL, Species: RAT, Strain/Sex: ACI/N/MALE, Target Tissue: Type of Lesion: TONGUE: PAPILLOMA, Dose [Carcinogen]: 10 PPM IN DRINKING WATER FOR 12 WK, Promoter: NONE USED) was 5/17 (29%), 1/15 (7%), 76%, not calculated, the “tumour outcome (control, treated, inhibition, significance)” value (Carcinogen: DIETHYLNITROSAMINE, 55-18-5, Dose [Inhibitor]: 0, 1200 PPM IN DIET BEGINNING 1 WK PRIOR TO FIRST CARCINOGEN DOSE AND CONTINUING TO 1 WK POST LAST CARCINOGEN DOSE (STUD, Route [Inhibitor]: ORAL, Species: RAT, Strain/Sex: ACI/N/MALE, Target Tissue: Type of Lesion: LIVER: ADENOMA, Dose [Carcinogen]: 40 PPM IN DRINKING WATER FOR 5 WK, Promoter: NONE USED) was 10/10 (100%), 2/12 (17%), 83%, p<0.0002 and the “tumour outcome (control, treated, inhibition, significance)” value (Carcinogen: DIETHYLNITROSAMINE, 55-18-5, Dose [Inhibitor]: 0, 1200 PPM IN DIET BEGINNING 1 WK PRIOR TO FIRST CARCINOGEN DOSE AND CONTINUING TO 1 WK POST LAST CARCINOGEN DOSE (STUD, Route [Inhibitor]: ORAL, Species: RAT, Strain/Sex: ACI/N/MALE, Target Tissue: Type of Lesion: LIVER: CARCINOMA, Dose [Carcinogen]: 40 PPM IN DRINKING WATER FOR 5 WK, Promoter: NONE USED) was 10/10 (100%), 4/12 (33%), 67%, p<0.002.
In the case of `C[C@H]1CC[C@@]2(C)C(=CC[C@@H]3[C@@H]2CC[C@]2(C)C(=O)CC[C@@H]32)C1`, the “tumour outcome (control, treated, inhibition, significance)” value (Carcinogen: 7,12-DIMETHYLBENZ[A]ANTHRACENE, 57-97-6, Dose [Inhibitor]: 100 UG IN 0.2 ML ACETONE 1 HR BEFORE EACH WEEKLY APPLICATION OF DMBA (STUDY DURATION: 290 D), Route [Inhibitor]: DERMAL, Species: MOUSE, Strain/Sex: CD-1/FEMALE, Target Tissue: Type of Lesion: SKIN: CARCINOMA, Dose [Carcinogen]: 200 NMOL AT 6-7 WK OF AGE THEN 100 NMOL IN 0.2 ML ACETONE 1 WK BEGINNING 2 WK LATER, Promoter: NONE USED) is given as 14/28 (50%), 1/28 (4%), 92%, p<0.001 and the outcome (Carcinogen: 7,12-DIMETHYLBENZ[A]ANTHRACENE, 57-97-6, Dose [Inhibitor]: 400 UG IN 0.2 ML ACETONE 1 HR BEFORE EACH WEEKLY APPLICATION OF DMBA (STUDY DURATION: 290 D), Route [Inhibitor]: DERMAL, Species: MOUSE, Strain/Sex: CD-1/FEMALE, Target Tissue: Type of Lesion: SKIN: CARCINOMA, Dose [Carcinogen]: 200 NMOL AT 6-7 WK OF AGE THEN 100 NMOL IN 0.2 ML ACETONE 1/WK BEGINNING 2 WK LATER, Promoter: NONE USED) is given as 14/28 (50%), 3/29 (10), 80%, p<0.001.
In the case of `CNC[C@H](O)c1ccc(O)c(O)c1`, the “tumour outcome (control, treated, inhibition, significance)” value (Carcinogen: 4-(METHYLNITROSAMINO)-1-(3-PYRIDLY)-1-BUTANONE [64091-91-4], Dose [Inhibitor]: 1 MG/KG BW 3X/WK FOR 31 WK BEGINNING 1 WK POST LAST CARCINOGEN DOSE (STUDY DURATION: 52 WK), Route [Inhibitor]: SUBCUTANEOUS, Species: HAMSTER, Strain/Sex: SYRIAN/MALE, Target Tissue: Type of Lesion: LUNG: TUMOR, Dose [Carcinogen]: 10 MG/KG BW 3X/WK FOR 20 WK (STUDY DURATION: 52 WK), Promoter: NONE) is listed as 12/15 (80.0%), 15/15 (100.0%), -25%, not calculated and the “tumour outcome (control, treated, inhibition, significance)” value (Carcinogen: 4-(METHYLNITROSAMINO)-1-(3-PYRIDLY)-1-BUTANONE [64091-91-4], Dose [Inhibitor]: 1 MG/KG BW 3X/WK FOR 31 WK BEGINNING 1 WK POST LAST CARCINOGEN DOSE (STUDY DURATION: 52 WK), Route [Inhibitor]: SUBCUTANEOUS, Species: HAMSTER, Strain/Sex: SYRIAN/MALE, Target Tissue: Type of Lesion: NASAL CAVITY: TUMOR, Dose [Carcinogen]: 10 MG/KG BW 3X/WK FOR 20 WK (STUDY DURATION: 52 WK), Promoter: NONE) is listed as 4/15 (26.7%), 3/15 (20.0%), 25%, not calculated.
